Measured values reported in patent US20230399612A1, “METHOD FOR THE GENERATION OF NEUROSPHERES” (KUGELMEIERS LTD., priority 2020, published 2023).
Where two headings read alike, the source gives them in different places.

Test system: Hi-Q organoids
Assay: Calcium imaging in sections of Hi-Q brain organoids (Oregon Green BAPTA 1)
Format: cell-based, human
Conditions: for calcium signals on addition of the substance: more evident in older than in younger organoids, FIG. 4C-D

| Compound | response of organoids to added transmitter (calcium imaging) (Day 30 organoids, FIG. 4C) | response of organoids to added transmitter (calcium imaging) (Day 40 organoids, FIG. 4D) | calcium signals on addition of the substance | other results |
| --- | --- | --- | --- | --- |
| glutamate | no response | respond | spike in calcium signals |  |
| NiCl2 |  |  |  | effect on the response to GABA (blocker added, calcium signal evoked by GABA): blocked |
| NS(=O)(=O)c1cccc2c1c([N+](=O)[O-])cc1nc(O)c(O)nc12 [NBQX] |  |  |  | effect on calcium signals evoked by GABA or glutamate (involvement of AMPA receptors) (blocker added): blocked |
| NC1=N[C@H](O)[C@H]2[C@H]3O[C@]4(O)O[C@@H]([C@@H](O)[C@@]2(N1)[C@@H]4O)[C@]3(O)CO [TTX, tetrodotoxin] |  |  |  | effect on the response to GABA: not altered; inhibition of sodium channels in the brain organoids, analyzed by calcium imaging: inhibits sodium channels |
| NCCCC(=O)O [GABA] | respond | respond | spike in calcium signals |  |
